Here are results for 7 compounds from patent EP4722219A1 (Gan & Lee Pharmaceuticals Co., Ltd., priority 2023, dated 2024).

Substitutions are numbered along the chain they refer to.

Holding throughout (format): cell-based
The test system of one experiment is T-47D cells. The experiment is described as follows: Inhibition of cell proliferation in T-47D cells (CCK-8). As to conditions: 6 days treatment, CCK-8 cell viability. As for the experimental part: Test Example 2 Inhibitory effect of PROTAC compounds provided by the present invention on cell proliferation in T-47D cells
The complete culture medium required for T-47D cells is 1640 (ATCC, Product number: A10491-01) basal culture medium containing 10% fetal bovine serum. T-47D cells were seeded in 96-well plates at a density of 3,000 cells/well, and different concentrations of PROTAC compounds 1-55 provided in the examples of the present invention and positive control sample ARV-471 (source: Inokai) were prepared to treat the cells and incubated at 37 °C, 5% CO2 cell culture incubator for 6 days. According to the manufacturer's instructions, cell viability was detected using a CCK-8 kit (Beyotime, Product number: C0040). The IC50 of each compound after treating for 6 days was calculated using GraphPadPrism software based on the inhibition rate. Table 2 Inhibition IC50 value of T-47D cell proliferation by PROTAC compounds provided by the present invention and positive control sample

The test system of a further experiment is MCF-7 cells. The experiment is described as follows: Inhibition of cell proliferation in MCF-7 cells (CCK-8). As to conditions: Homo sapiens, MCF7, 144 h, MCF-7 cell proliferation, 6 days treatment. As to the method: Test Example 3 Inhibitory effect of PROTAC compounds provided by the present invention on cell proliferation in MCF-7 cells
The complete culture medium required for MCF-7 cells (source ATCC) is DMEM (gibco, Product number: 11995-065) basal culture medium containing 10% fetal bovine serum. MCF-7 cells were seeded in 96-well plates at a density of 800 cells/well, and different concentrations of PROTAC compounds 1-55 provided in the examples of the present invention and positive control sample ARV-471 (source: Inokai) were prepared to treat the cells and incubated at 37 °C, 5% CO2 cell culture incubator for 6 days. According to the manufacturer's instructions, cell viability was detected using a CCK-8 kit (Beyotime, Product number: C0040). The IC50 of each PROTAC compound after treating for 6 days was calculated using GraphPadPrism software based on the inhibition rate. Table 3 Inhibition IC50 value of MCF-7 cell proliferation by PROTAC compounds of the present invention and positive control sample

The target in experiment [1] is T1, AR protein (Homo sapiens, UniProt P10275).
T1 construct: host or cells: VCaP
T1 sequence (P10275 1-920): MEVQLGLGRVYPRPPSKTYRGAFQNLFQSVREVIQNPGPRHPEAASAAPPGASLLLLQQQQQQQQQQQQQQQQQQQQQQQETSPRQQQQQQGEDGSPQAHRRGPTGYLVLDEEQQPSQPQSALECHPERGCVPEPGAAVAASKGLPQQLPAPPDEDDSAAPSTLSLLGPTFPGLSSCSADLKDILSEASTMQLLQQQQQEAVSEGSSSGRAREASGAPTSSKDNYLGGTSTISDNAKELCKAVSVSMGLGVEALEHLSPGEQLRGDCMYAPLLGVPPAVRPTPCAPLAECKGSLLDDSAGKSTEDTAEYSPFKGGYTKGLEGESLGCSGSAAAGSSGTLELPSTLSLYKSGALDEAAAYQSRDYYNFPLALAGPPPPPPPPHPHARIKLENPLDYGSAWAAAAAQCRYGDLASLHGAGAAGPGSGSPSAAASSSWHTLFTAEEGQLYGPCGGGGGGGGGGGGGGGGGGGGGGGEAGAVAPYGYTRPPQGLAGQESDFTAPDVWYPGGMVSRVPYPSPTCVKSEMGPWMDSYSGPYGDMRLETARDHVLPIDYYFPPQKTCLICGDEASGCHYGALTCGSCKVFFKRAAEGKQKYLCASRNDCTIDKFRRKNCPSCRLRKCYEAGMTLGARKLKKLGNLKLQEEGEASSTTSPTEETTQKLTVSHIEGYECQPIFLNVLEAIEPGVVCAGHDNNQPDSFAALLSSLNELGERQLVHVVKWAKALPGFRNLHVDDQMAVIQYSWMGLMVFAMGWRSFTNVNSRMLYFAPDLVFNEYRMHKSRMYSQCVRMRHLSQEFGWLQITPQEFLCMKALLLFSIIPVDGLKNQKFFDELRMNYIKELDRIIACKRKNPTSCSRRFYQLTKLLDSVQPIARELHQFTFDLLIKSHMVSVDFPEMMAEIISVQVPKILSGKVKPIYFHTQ
The experiment is described as follows: AR protein degradation in VCaP cells (Western blot). As to conditions: 8h. As to the method:
The degradation activity of the compounds disclosed in the present invention on AR protein in VCaP cells (cell source: ATCC)
The AR-positive human prostate cancer cells VCaP cultured in DMEM (GiBco catalog number 11995-065) containing 10% FBS (Hyclone catalog number SH30406.05) was inoculated in a six-well microplate (Thermo catalog number 140675) at a concentration of 3×10^5 cells/ well. After being cultured overnight in a carbon dioxide incubator (ESCO), the prepared compound of the present invention and the positive control sample ARV-766 (Annaiji) solution of different concentrations were added at a volume of 1 µL/well to make the final concentrations of the compound and the positive control sample reach 5nM and 0.5nM, respectively. At the same time, the corresponding solvent control was set and cultured for 8h. After 8h of culture, the culture medium was removed, and the cells were washed with PBS. RIPA lysis buffer containing 1% Protease Inhibitor Cocktail was added. After lysis and centrifugation, a total protein extract was obtained, and the protein concentration in the extract was detected by BCA method. Protein electrophoresis was performed using SDS-PAGE, and then the protein was transferred to a PVDF (Millipore Sigma catalog number PSRP010R5) membrane at a constant voltage of 100V for 60min. The PVDF membrane was placed in a 5% milk powder 1×TBST solution and blocked at room temperature for 1h. The primary antibody solution (Anti-Androgen receptor, Cell Signaling Technology catalog number: 5153S; 1:2000 dilution) was prepared and was incubated at 4°C overnight. The primary antibody solution was discarded and the PVDF membrane was washed with 1×TBST for 5 minutes each time, for three times. The secondary antibody solution (Thermo catalog number SA5-35571; 1:7500 dilution) was prepared and was incubated at room temperature for 1 hour. The secondary antibody solution was discarded and the PVDF membrane was washed with 1×TBST for 5 minutes each time, for three times. A dual-color infrared laser imaging system (Licor catalog number Odyssey CLX) was used for Western membrane imaging. Image Studio software was used to analyze the grayscale of the bands. GAPDH protein bands were also detected for each sample as the reference. The AR protein degradation rate of the compound and the positive control sample was calculated based on the grayscale of the protein bands.
Table 7 Degradation rate of AR protein in VCaP cells by the compounds disclosed in the present invention
(In western blotting, separated proteins are transferred to a membrane and probed.)

The target in experiment [2] is T2, AR protein (Homo sapiens, UniProt P10275, T878A).
T2 construct: host or cells: LNCaP FGC
T2 sequence (P10275 1-920 T878A): T1 sequence (P10275 1-920) with T878A
The experiment is described as follows: AR protein degradation in LNCaP cells (Western blot). To be noted: 8 hours. As to the method: At the same time, the corresponding solvent control was set and cultured for 8 hours. After 8 hours of culture, the culture medium was removed, the cells were washed with PBS, and RIPA lysis buffer containing 1% Protease Inhibitor Cocktail was added. After lysis and centrifugation, the total protein extract was obtained, and the protein concentration in the extract was detected by BCA method. Protein electrophoresis was performed using SDS-PAGE, and then the protein was transferred to a PVDF (Millipore Sigma catalog number PSRP010R5) membrane at a constant voltage of 100V for 60 minutes. The PVDF membrane was placed in a 5% milk powder 1 ×TBST solution and blocked at room temperature for 1 hour. […] The primary antibody solution was discarded and the PVDF membrane was washed with 1×TBST for 5 minutes each time, for three times. […] The secondary antibody solution was discarded and the PVDF membrane was washed with 1 ×TBST for 5 minutes each time, for three times. A dual-color infrared laser imaging system (Licor catalog number Odyssey CLX) was used for Western membrane imaging. The Image Studio software was used to analyze the grayscale of the bands. GAPDH protein bands were also detected for each sample as the reference. The AR protein degradation rate of the compound and the positive control sample was calculated based on the grayscale of the protein bands.

In general, IC50 refers to the concentration needed to halve the response being measured. Low readings indicate inhibition by little substance, high ones a need for much substance.

As for `Cn1c(=O)n(C2CCC(=O)NC2=O)c2ccc3c(c21)OCC31CCN(C2CCN(C3CCN(c4ccc([C@@H]5c6ccc(O)cc6CC[C@@H]5c5ccccc5)cc4)CC3)CC2)CC1` (some centres unmarked), the IC50 in the experiment on T-47D cells (Homo sapiens, T47D, 144 h) turned out to be 1.71 nM; in the experiment on MCF-7 cells, 11.7 nM.

Regarding `COc1cc(O[C@H]2C(C)(C)[C@H](NC(=O)c3ccc(N4CCC(CN5CCC6(CC5)COc5c6ccc6c5n(C)c(=O)n6C5CCC(=O)NC5=O)CC4)nn3)C2(C)C)ccc1C#N` (relative stereo) [A-P-27], the “Degradation rate of AR protein in VCaP cells” value at AR protein [1] (0.5 nM) was 78%; on AR protein [1] (5 nM), 80%. The “Degradation of AR protein in LNCaP cells, 10 nM (%)” value on AR protein [2] (10 nM) stood at 43%. Also, the “Degradation of AR protein in LNCaP cells, 100 nM (%)” value at AR protein [2] (100 nM) turned out to be 43%.

At AR protein [2] (10 nM), `COc1cc(O[C@H]2CC[C@H](NC(=O)c3ccc(N4CCC5(CC4)CC(N4CCC6(CC4)COc4cc7c(cc46)n(C)c(=O)n7C4CCC(=O)NC4=O)C5)nn3)CC2)ccc1C#N` (some centres unmarked) [A-P-11] yielded a percent AR protein degradation at a fixed concentration at 0.01 µM of 76%. Further, the percent AR protein degradation at a fixed concentration at 0.1 µM on AR protein [2] (100 nM) is 32%.

With `Cn1c(=O)n(C2CCC(=O)NC2=O)c2ccc3c(c21)OCC31CCN(C(=O)CN2CCC3(CCN(c4ccc([C@@H]5c6ccc(O)cc6CC[C@@H]5c5ccccc5)cc4)CC3)C2)CC1` (stereo partly drawn) [ER-P-68, 3-(1'-(2-(8-(4-((1R,2S)-6-hydroxy-2-phenyl-1,2,3,4-tetrahydronaphthalen-1-yl)phenyl)-2,8-diazaspiro[4.5]decan-2-yl)acetyl)-1-methyl-2-oxo-1,2-dihydro-3H,7H-spiro[benzofuro[6,7-d]imidazole-6,4'-piperidin]-3-yl)piperidine-2,6-dione], the IC50 came out at 1.18 nM with T-47D cells (Homo sapiens, T47D, 144 h) and 8.27 nM in the experiment with MCF-7 cells.

Consider `Cn1c(=O)n(C2CCC(=O)NC2=O)c2cc3c(cc21)C1(CCN(C(=O)CN2CCC4(CCN(c5ccc([C@@H]6c7ccc(O)cc7CC[C@@H]6c6ccccc6)cc5)CC4)C2)CC1)CO3` (stereo partly drawn) [ER-P-69, 3-(1'-(2-(8-(4-((1R,2S)-6-hydroxy-2-phenyl-1,2,3,4-tetrahydronaphthalen-1-yl)phenyl)-2,8-diazaspiro[4.5]decan-2-yl)acetyl)-1-methyl-2-oxo-1,2-dihydro-3H,6H-spiro[benzofuro[5,6-d]imidazole-7,4'-piperidin]-3-yl)piperidine-2,6-dione], for which the IC50 with T-47D cells (Homo sapiens, T47D, 144 h) stood at 0.28 nM; with MCF-7 cells, 1.43 nM.

Take `Cn1c(=O)n(C2CCC(=O)NC2=O)c2ccc3c(c21)OCC31CCN(CC2CC(OC3CCN(c4ccc([C@@H]5c6ccc(O)cc6CC[C@@H]5c5ccccc5)cc4)CC3)C2)CC1` (stereo partly drawn) [ER-P-80, 3-(1'-(((1S,3s)-3-((1-(4-((1R,2S)-6-hydroxy-2-phenyl-1,2,3,4-tetrahydronaphthalen-1-yl)phenyl)piperidin-4-yl)oxy)cyclobutyl)methyl)-1-methyl-2-oxo-1,2-dihydro-3H,7H-spiro[benzofuro[6,7-d]imidazole-6,4'-piperidin]-3-yl)piperidine-2,6-dione]: in the experiment with T-47D cells, the IC50 is 0.9 nM.

In turn, `O=C1CCC(Nc2ccc3c(c2)OCC32CCN(CC3CC(OC4CCN(c5ccc([C@@H]6c7ccc(O)cc7CC[C@@H]6c6ccccc6)cc5)CC4)C3)CC2)C(=O)N1` (stereo partly drawn) [ER-P-92, 3-((1'-(((1S,3s)-3-((1-(4-((1R,2S)-6-hydroxy-2-phenyl-1,2,3,4-tetrahydronaphthalen-1-yl)phenyl)piperidin-4-yl)oxy)cyclobutyl)methyl)-2H-spiro[benzofuran-3,4'-piperidin]-6-yl)amino)piperidine-2,6-dione] gave an IC50 in the experiment with T-47D cells of 4.56 nM.
